Columns and labels:
CYP2C19 = biological target: T1, CYP2C19 (Homo sapiens, UniProt P33261); test: Cytochrome P450 inhibition, CYP2C19; assay type: in vitro ADME; details: human liver microsomes, probe mephenytoin
T1 construct: from tissue; host or cells: human liver microsomes
Procedure: This provided a dose of 2 mg free base material/kg when Cytochrome p450 inhibition (5 isoform iC50 administered iv in a 5 mL/kg dosing volume. determination) mouse terminal ip pK study ADME-Tox Cytochrome P450 inhibition of Compound MC2884 was given ip at a dose of 2 mg/kg MC2884 using human liver microsomes as an estimation to a group of 24 normally fed male CD1 mice in a 10 mL/ of in vitro metabolism. kg injection volume. Terminal blood samples (> 230 μL) MC2884 (0.1 μM–25 μM) was incubated with were taken under CO2 from groups of 3 mice at each of 8 human liver microsomes and NADPH in the presence time-points post dose (0.083, 0.25, 0.5, 1, 2, 4, 8 and 24 h) of a cytochrome P450 isoform-specific probe substrate. and placed into heparinized tubes. […]
All samples were stored at −20° C measuring the formation of a fluorescent metabolite. […]
Cyp2C19 inhibition (0.1 mg/mL) and NADPH (1 mM) in the presence of the probe substrate midazolam (2.5 μM) for 5 min at Six test compound samples at concentrations 37° C. […] For the CYP1A incubations, the reactions microsomes (0.5 mg/mL) and NADPH (1 mM) in the were terminated by methanol, and the formation of the presence of the probe substrate mephenytoin (25 μM) metabolite, resorufin, was monitored by fluorescence for 60 min at 37° C. […]

HCT116 colon carcinoma = test: Immunohistochemistry and TUNEL of HCT116 xenograft tumors; assay type: in vivo, mice; details: end of treatment, 10 mg/Kg
Procedure: HCT116 cell line was grown in McCoy’s medium, supplemented with 10% inactivated FBS, 2 mM glutamine and standard concentration of antibiotics. 7- to 8-week-old male CD1 nude athymic mice were purchased from Charles River and under pathogen-free conditions in accordance with European Directives no. 2010/63 and with Italian D.L. 26/2014. Mice were injected subcutaneously into the right flank with 4 × 10^6 of HCT116 cells; tumor volume (mm^3) was evaluated three times a week by caliper using the formula Dmax x dmin^^2/2, where ‘d’ and ‘D’ are the shortest and the longest diameters, respectively. For all experiments, mice were randomly divided (n = 7) and intra-peritoneal injected by day five every day with: vehicle sesame oil/DMSO 6%; MC2884 10 mg/Kg in sesame oil/DMSO 6%. Mice were sacrificed after 20 days of drug treatment and tumors explanted for immunohistochemical analyses. For HCT116-DKO colon cancer, 6 × 10^6 cells were injected.
The biopsy specimens were fixed in 10% buffered-formalin and paraffin-embedded. Sections of […] were stained with haematoxylin-eosin, and haematoxylin-van Gieson. For immunohistochemistry, specimens were incubated in a microwave oven for 15 min in 10 mM buffered citrate pH 6.0 followed by the immunohistochemical procedure for Ki67 (Santa Cruz Biotechnology Inc., CA, USA), H3K27me3, H3K9/14ac (Diagenode). The conventional avidin-biotin complex procedure was applied according to manufacturer’s protocol (Dako Carpinteria, CA, USA) and incubated with secondary antibody. […] Slides were cover-slipped with a xylene-based mounting medium. Staining was scored as percentage of positive nuclei per high power field 10 × 40. Negative controls for each tissue section were performed omitting the primary antibody. Positive controls included in each experiment consisted of tissue previously shown to express the antigen of interest. TUNEL reaction was performed using the peroxidase-based Apoptag kit (Oncor, Gaithersburg, MD, US). TUNEL positive cells were detected with DAB and H2O2 according to the supplier’s instructions. The experiments were repeated on different sections for each specimen (two to four). For all immunohistochemical markers, 100 random fields (250×) per section were analysed (12.5 mm^2). Mann–Whitney and Wilcoxon tests were used to assess the relationship between ordinal data. Two-tailed P value was considered significant when ≤ 0.05. SPSS software (version 10.00, SPSS, Chicago, IL, USA) was used for statistical analysis.

EZH2 = biological target: T2, EZH2 (Homo sapiens, UniProt Q15910); test: EZH2 methyltransferase in vitro assay; assay type: biochemical
T2 construct: purchased BPS Biosciences
Procedure: EZH2 assays were performed following BPS Biosciences instructions and as previously described.

[1] = scored as percentage of positive nuclei

T2 sequence (Q15910 whole entry): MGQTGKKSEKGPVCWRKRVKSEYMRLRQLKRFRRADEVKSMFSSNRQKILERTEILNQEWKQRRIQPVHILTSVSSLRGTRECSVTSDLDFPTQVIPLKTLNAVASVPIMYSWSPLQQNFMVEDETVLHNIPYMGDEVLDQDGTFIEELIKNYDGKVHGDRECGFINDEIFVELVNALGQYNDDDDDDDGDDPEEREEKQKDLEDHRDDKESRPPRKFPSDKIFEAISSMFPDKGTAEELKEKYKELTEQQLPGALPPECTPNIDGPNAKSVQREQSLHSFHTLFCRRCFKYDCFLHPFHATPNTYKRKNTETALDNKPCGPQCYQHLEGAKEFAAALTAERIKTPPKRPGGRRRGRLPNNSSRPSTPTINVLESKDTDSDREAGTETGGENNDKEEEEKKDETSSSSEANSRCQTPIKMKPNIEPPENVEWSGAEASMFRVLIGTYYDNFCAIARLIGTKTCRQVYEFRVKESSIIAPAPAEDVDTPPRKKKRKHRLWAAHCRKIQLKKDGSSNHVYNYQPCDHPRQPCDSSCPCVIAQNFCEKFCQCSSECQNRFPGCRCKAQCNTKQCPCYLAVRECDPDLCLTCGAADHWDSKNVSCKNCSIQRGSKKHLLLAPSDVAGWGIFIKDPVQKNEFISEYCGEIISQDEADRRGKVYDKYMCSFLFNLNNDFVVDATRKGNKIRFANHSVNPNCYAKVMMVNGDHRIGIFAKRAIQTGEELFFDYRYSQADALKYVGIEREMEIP
T2 sequence (O75530 whole entry partner): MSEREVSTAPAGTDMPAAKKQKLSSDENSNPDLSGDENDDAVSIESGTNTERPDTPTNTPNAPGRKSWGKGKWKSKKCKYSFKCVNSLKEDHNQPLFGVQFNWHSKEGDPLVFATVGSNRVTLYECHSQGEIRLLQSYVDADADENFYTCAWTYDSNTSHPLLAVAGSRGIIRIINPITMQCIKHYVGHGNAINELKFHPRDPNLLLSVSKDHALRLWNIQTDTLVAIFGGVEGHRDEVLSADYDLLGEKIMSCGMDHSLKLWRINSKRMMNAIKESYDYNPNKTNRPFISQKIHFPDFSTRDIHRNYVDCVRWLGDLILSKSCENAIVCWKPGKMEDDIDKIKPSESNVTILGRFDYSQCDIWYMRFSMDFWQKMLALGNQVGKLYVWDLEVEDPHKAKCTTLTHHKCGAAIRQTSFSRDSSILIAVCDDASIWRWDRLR
T2 sequence (Q15022 whole entry partner): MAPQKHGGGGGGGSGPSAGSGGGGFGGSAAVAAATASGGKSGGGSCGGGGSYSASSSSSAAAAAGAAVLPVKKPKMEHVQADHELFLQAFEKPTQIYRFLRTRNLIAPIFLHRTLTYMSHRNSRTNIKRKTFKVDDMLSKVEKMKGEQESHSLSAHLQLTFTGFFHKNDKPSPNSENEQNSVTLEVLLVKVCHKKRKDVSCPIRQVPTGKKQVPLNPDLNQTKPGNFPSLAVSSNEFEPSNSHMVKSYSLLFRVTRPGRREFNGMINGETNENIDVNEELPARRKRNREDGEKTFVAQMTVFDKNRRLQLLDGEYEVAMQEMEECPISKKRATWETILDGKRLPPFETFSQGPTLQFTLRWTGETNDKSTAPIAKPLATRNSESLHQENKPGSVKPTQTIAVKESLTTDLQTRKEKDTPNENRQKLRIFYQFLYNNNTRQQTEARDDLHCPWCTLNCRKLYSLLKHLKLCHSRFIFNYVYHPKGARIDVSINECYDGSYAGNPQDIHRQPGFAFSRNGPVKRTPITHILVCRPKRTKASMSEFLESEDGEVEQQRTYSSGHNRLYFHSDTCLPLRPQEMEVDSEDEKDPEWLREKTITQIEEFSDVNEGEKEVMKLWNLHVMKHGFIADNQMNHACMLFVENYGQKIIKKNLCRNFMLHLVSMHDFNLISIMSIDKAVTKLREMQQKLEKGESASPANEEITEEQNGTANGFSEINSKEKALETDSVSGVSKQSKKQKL
T2 sequence (Q09028 whole entry partner): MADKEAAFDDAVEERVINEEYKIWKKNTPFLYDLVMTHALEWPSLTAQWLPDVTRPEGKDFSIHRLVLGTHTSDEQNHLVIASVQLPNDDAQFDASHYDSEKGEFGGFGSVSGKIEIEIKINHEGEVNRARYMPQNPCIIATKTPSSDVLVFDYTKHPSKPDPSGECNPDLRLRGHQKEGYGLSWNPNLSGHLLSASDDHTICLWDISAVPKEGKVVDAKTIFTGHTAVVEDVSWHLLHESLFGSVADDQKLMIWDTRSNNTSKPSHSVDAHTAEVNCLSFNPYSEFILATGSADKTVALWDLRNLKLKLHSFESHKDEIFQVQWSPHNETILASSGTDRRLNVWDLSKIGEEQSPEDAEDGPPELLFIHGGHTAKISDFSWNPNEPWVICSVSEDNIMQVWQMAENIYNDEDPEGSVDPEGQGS
T2 sequence (Q6ZN18 whole entry partner): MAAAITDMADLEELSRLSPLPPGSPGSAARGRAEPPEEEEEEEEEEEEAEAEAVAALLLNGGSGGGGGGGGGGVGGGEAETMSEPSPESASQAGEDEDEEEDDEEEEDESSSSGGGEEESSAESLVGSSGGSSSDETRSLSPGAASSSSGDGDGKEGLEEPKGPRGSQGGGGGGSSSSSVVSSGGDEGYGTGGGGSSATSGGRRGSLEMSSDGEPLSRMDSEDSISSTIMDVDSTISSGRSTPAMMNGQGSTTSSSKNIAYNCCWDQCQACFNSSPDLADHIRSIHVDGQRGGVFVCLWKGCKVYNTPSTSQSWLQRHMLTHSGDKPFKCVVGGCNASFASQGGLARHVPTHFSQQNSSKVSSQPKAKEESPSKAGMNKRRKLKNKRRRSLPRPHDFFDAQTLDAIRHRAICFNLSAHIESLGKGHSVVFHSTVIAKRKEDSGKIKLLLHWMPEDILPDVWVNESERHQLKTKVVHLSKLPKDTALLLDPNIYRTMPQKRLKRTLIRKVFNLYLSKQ
T1 sequence (P33261 whole entry): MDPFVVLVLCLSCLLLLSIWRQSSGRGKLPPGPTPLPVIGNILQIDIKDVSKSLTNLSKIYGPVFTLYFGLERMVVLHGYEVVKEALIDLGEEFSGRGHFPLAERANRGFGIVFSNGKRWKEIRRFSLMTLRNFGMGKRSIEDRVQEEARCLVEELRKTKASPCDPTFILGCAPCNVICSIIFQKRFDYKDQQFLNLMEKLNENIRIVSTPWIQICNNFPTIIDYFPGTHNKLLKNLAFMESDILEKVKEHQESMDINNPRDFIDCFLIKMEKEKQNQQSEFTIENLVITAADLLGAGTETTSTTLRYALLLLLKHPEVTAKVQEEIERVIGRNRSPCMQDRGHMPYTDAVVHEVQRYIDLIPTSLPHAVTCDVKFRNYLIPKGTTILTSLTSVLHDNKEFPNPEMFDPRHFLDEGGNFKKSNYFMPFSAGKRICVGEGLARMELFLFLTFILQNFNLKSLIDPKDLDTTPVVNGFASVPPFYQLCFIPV

O=C1/C(=C/c2cccc(Br)c2)CN(Cc2ccccc2)C/C1=C\c1cccc(Br)c1 [MC2884]
IC50 (CYP2C19): > 25 µM | apoptotic index (TUNEL) (HCT116 colon carcinoma): 35±4 | H3 K9/14ac (HCT116 colon carcinoma; [1]): 5±0.2 | H3 K27me3 (HCT116 colon carcinoma; [1]): 19±2 | proliferation index (Ki67) (HCT116 colon carcinoma; [1]): 6±0.5 | inhibition at 5 µM (EZH2; 5 μM): ~40% | inhibition at 25 µM (EZH2; 25 μM): ~80%

Source: PMC5986654, “Combined HAT/EZH2 modulation leads to cancer-selective cell death” (Oncotarget, 2018)
